Data on 2 molecules can be found in patent US20230364074A1, “Compounds and Compositions for Disrupting Programmed Ribosomal Frameshifting” (YALE UNIVERSITY, priority 2020, published 2023).

In one data set the test system is −1 PRF in SARS-CoV-2. The following applies: prior art statement; cited from earlier work.
A further data set relates to SARS-CoV-2 FSE (−1 PRF). Kind of data set: cells. It counts as cell-based. The note with it: Severe acute respiratory syndrome coronavirus 2, HEK-293T, 24 h.
The subject of a further data set is HCoV-OC43. The data set is described as follows: Viral plaque assay, HCoV-OC43 in MA104 cells. It counts as cell-based. The note with it: MA104 cells (FIGS. 6G-6H). As for the experimental part: Plaque formation assays for SARS-CoV-2, HCoV-229E, and HCoV-OC43 were performed in Vero E6, HuH-7.5, and MA104 cells (ATCC), respectively. Briefly, cells were seeded at 2-4×10^5 cells/well in 12-well plates. The following day, cells were incubated with viral stock (multiplicity of infection [MOI]=0.05) for 1 h and washed twice with PBS. Merafloxacin diluted in DMSO was added to the media, mixed briefly, and incubated at 37° C. After 2 d, media were collected, centrifuged, and supernatants were stored at −80° C. To quantify viral titers, the collected media were first serially diluted 10-fold with fresh media. Two hundred microliters of each dilution were added to near-confluent cells in six-well plates and incubated at 37° C. for 1 h with gentle rocking. Subsequently, overlay media (DMEM, 2% FBS, 0.6% Avicel RC-581) was added to each well. After 3 d, cells were fixed with 10% formaldehyde for 30 min, stained with crystal violet for 30 min, and rinsed with deionized water to visualize plaques.

The test system of a further data set is SARS-CoV-2. The data set is described as follows: Viral plaque assay, SARS-CoV-2 in Vero E6 cells. The note with it: Severe acute respiratory syndrome coronavirus 2, Vero C1008. It counts as cell-based.
The test system of data set [1] is two-stem pseudoknot FSE of IBV. In kind it is cell-based, avian coronavirus infectious bronchitis virus (IBV). The note with it: 20 μM merafloxacin (FIG. 2E).
Data set [2] relates to HEK293T cells. In kind it is cell-based.
The test system of a further data set is HIV-1 (NL4-3-dNef-GFP). Kind of data set: HIV-1 antiviral assay in Jurkat T cells. It counts as cell-based. The note with it: Jurkat T cells (FIG. 7).
The next data set has as its system SARS-CoV-2 nsp12 / nsp8. In kind it is cell-based.
A further data set relates to −1 PRF of EAV. It counts as cell-based, equine arteritis virus (EAV).
Another data set relates to −1 PRF of SARS-CoV. Kind of data set: microbe, parasite or virus in culture. In kind it is cell-based. The note with it: Severe acute respiratory syndrome coronavirus, read-out: IC50 of −1 PRF inhibition, SARS-CoV.
The subject of another data set is Vero E6 cells. The following applies: Vero E6 cells (FIG. 6B).
The subject of another data set is −1 PRF of hCoV-NL63. In kind it is cell-based. The following applies: 20 μM merafloxacin (FIG. 2E).
The subject of a further data set is −1 PRF of WNV. It counts as cell-based, west nile virus (WNV).
Data set [3] deals with HEK293T cells. Kind of data set: Cell viability in the high-throughput screen (cell nuclei numbers). The note with it: 10 μM compound, cell nuclei numbers. As for the experimental part:
HEK293T cells were plated in 384 well plates at the density of 5,000 cells/well. Cells were treated by 10 μM candidate compounds 30 min before transfection of 15 ng mCherry-FSE-GFP(−1) plasmid DNA in each well. 24 hours after transfection, cell nuclei were stained with Hoechst dye. Cell nuclei, mCherry, and GFP signals were imaged using an automated fluorescent microscope with a 10x objective, and the acquired images were quantified using the CellProfiler image analysis package. Cell nuclei numbers were quantified as the metric for cell viability. Mean GFP and RFP intensity values were measured in all transfected cells, and GFP/mCherry mean intensity ratios were quantified as the metric for PRF efficiency. The mCherry-GFP fusion plasmid and the mCherry-FSE-GFP(0) plasmid were used as positive and negative controls for elevated and reduced GFP/mCherry ratios, respectively.

The subject of another data set is −1 PRF of SARS-CoV-2. Kind of data set: microbe, parasite or virus in culture. In kind it is cell-based.
The test system of another data set is −1 PRF of HCoV-OC43. Kind of data set: microbe, parasite or virus in culture. It counts as cell-based. The following applies: Betacoronavirus 1, OC43, read-out: IC50 of −1 PRF inhibition, HCoV-OC43.
Data set [4] concerns HEK293T cells. The note with it: HEK293T (FIG. 2N).
The test system of the next data set is −1 PRF of HIV-1. In kind it is cell-based, human immunodeficiency virus 1 (HIV-1).
Data set [5] has as its system −1 PRF of human PEG10 mRNA. In kind it is cell-based.
Another data set deals with −1 PRF of HCoV-HKU1. The data set is described as follows: cells. It counts as cell-based. The following applies: read-out: IC50 of −1 PRF inhibition, HCoV-HKU1.
A further data set has as its system −1 PRF of hCoV-229E. It counts as cell-based. The following applies: 20 μM merafloxacin (FIG. 2E).

Structures are written as SMILES.

Consider `CCOC(=O)c1ccccc1NC(=O)N1CCCN(Cc2csc(C)n2)CC1` [MTDB], for which the “inhibition of −1 PRF in SARS-CoV-2 reporter assays” value in the data set on −1 PRF in SARS-CoV-2 is given as “inhibit −1 PRF”.
`CCNCC1CCN(c2c(F)cc3c(=O)c(C(=O)O)cn(CC)c3c2F)C1` (stereo not shown) [merafloxacin, 1-ethyl-7-[3-(ethylaminomethyl)pyrrolidin-1-yl]-6,8-difluoro-4-oxoquinoline-3-carboxylic acid]: in the data set on SARS-CoV-2 FSE (−1 PRF) (read-out: PERCENT EFFECT 2 (Decreased GFP/Red ratio)), the inhibition at 10 µM was 25%. In the data set with SARS-CoV-2 FSE (−1 PRF) (read-out: PERCENT EFFECT (Increased GFP/Red Ratio)), the activation at 10 µM was -13%. Moreover, the “antiviral activity against HCoV-OC43” value in the data set with HCoV-OC43 is listed as “showed antiviral activity”. In the data set with SARS-CoV-2 (read-out: EC50 of SARS-CoV-2 replication), the EC50 was 2.6 µM. Also, in the data set with SARS-CoV-2 (read-out: EC90 of SARS-CoV-2 replication), the EC90 worked out at 12 µM. Besides, the “sensitivity of IBV FSE” value in data set [1] is “largely insensitive”. Moreover, the “effect on upstream FLuc translation” value with HEK293T cells [2] (20 μM merafloxacin (FIG. 2F)) is on record as “did not affect”. Further, the “effect on ribosome association of the reporter mRNA” value in the data set with HEK293T cells [2] (80 μM merafloxacin (FIG. 2H)) is given as “did not affect”. Besides, in the data set on HEK293T cells [2] (80 μM merafloxacin for 24 hours (FIG. 2G)), the “effect on global translation (polysome profiles)” value is given as “did not affect”. Further, the “effect on reporter mRNA abundance” value with HEK293T cells [2] (FIG. 2M) is given as “did not affect”. Also, in the data set on HIV-1 (NL4-3-dNef-GFP), the “antiviral activity against an HIV-1 reporter virus” value is “no antiviral activity”. Also, the “relative abundance between nsp12 and nsp8” value in the data set with SARS-CoV-2 nsp12 / nsp8 is “substantially reduced”. Moreover, the “inhibition of −1 PRF of EAV” value in the data set with −1 PRF of EAV is reported as “did not inhibit”. Besides, the IC50 is roughly 20 µM in the data set on −1 PRF of SARS-CoV; roughly 20 µM with −1 PRF of SARS-CoV-2 (Severe acute respiratory syndrome coronavirus 2, dose-dependent, FIG. 2C, read-out: IC50 of −1 PRF inhibition, SARS-CoV-2); 39 µM in the data set with −1 PRF of HCoV-OC43; 30 µM in the data set on −1 PRF of HCoV-HKU1. In addition, the cytotoxicity entry in the data set on Vero E6 cells is “without causing substantial cytotoxicity”. Further, the “activity against −1 PRF of hCoV-NL63” value with −1 PRF of hCoV-NL63 is “much weaker activity”. For the same molecule, the “inhibition of −1 PRF of WNV” value with −1 PRF of WNV is on record as “did not inhibit”. Besides, in the data set on HEK293T cells [3], the “PERCENT VIABILITY” value came to 168.57%. The “−1 PRF of in vitro-transcribed SARS-CoV-2 reporter mRNAs” value in the data set with −1 PRF of SARS-CoV-2 (in vitro transcribed RNAs (FIG. 2O)) is “inhibited”. In addition, the “validated effect on −1 PRF in dual luciferase-based PRF reporter assay” value in the data set with −1 PRF of SARS-CoV-2 (repurchased screen candidates) is on record as “inhibitor”. Further, in the data set with HEK293T cells [4], the “effect on cell viability” value is reported as “did not affect”. In addition, the “inhibition of −1 PRF of HIV-1” value in the data set with −1 PRF of HIV-1 is reported as “did not inhibit”. The “inhibition of −1 PRF of human PEG10 mRNA” value in [5] is listed as “did not inhibit”. Moreover, the “activity against −1 PRF of hCoV-229E” value in the data set with −1 PRF of hCoV-229E was “much weaker activity”.
